Measured values taken from article PMC3469822, “ATP-Driven Remodeling of the Linker Domain in the Dynein Motor” (Structure(London, England:1993), 2012).

Tests used:
[1] = target: T1, cytoplasmic dynein motor domain (380 kDa) (Dictyostelium discoideum, UniProt P34036); assay: cryo-EM reconstruction of head, […] Å; type: binding; conditions: 1 mM ADP, 4 mM MgSO4, pH 7.0; ligand itself not resolved
T1 construct: gene dhcA; tail-less motor domain V1388-I4730, N-terminal His6 and FLAG tags, 380 kDa

[2] = target: T2, cytoplasmic dynein motor domain (380 kDa) (Dictyostelium discoideum, UniProt P34036, E2027Q); assay: cryo-EM reconstruction of head, […] Å; type: binding; conditions: 1 mM ATP, 4 mM MgSO4, pH 7.0; AAA1 Walker B mutant that binds but does not hydrolyse ATP; ligand itself not resolved
T2 construct: gene dhcA; tail-less motor domain V1388-I4730, N-terminal His6 and FLAG tags, 380 kDa
T2 sequence (P34036 1388-4730 E2027Q): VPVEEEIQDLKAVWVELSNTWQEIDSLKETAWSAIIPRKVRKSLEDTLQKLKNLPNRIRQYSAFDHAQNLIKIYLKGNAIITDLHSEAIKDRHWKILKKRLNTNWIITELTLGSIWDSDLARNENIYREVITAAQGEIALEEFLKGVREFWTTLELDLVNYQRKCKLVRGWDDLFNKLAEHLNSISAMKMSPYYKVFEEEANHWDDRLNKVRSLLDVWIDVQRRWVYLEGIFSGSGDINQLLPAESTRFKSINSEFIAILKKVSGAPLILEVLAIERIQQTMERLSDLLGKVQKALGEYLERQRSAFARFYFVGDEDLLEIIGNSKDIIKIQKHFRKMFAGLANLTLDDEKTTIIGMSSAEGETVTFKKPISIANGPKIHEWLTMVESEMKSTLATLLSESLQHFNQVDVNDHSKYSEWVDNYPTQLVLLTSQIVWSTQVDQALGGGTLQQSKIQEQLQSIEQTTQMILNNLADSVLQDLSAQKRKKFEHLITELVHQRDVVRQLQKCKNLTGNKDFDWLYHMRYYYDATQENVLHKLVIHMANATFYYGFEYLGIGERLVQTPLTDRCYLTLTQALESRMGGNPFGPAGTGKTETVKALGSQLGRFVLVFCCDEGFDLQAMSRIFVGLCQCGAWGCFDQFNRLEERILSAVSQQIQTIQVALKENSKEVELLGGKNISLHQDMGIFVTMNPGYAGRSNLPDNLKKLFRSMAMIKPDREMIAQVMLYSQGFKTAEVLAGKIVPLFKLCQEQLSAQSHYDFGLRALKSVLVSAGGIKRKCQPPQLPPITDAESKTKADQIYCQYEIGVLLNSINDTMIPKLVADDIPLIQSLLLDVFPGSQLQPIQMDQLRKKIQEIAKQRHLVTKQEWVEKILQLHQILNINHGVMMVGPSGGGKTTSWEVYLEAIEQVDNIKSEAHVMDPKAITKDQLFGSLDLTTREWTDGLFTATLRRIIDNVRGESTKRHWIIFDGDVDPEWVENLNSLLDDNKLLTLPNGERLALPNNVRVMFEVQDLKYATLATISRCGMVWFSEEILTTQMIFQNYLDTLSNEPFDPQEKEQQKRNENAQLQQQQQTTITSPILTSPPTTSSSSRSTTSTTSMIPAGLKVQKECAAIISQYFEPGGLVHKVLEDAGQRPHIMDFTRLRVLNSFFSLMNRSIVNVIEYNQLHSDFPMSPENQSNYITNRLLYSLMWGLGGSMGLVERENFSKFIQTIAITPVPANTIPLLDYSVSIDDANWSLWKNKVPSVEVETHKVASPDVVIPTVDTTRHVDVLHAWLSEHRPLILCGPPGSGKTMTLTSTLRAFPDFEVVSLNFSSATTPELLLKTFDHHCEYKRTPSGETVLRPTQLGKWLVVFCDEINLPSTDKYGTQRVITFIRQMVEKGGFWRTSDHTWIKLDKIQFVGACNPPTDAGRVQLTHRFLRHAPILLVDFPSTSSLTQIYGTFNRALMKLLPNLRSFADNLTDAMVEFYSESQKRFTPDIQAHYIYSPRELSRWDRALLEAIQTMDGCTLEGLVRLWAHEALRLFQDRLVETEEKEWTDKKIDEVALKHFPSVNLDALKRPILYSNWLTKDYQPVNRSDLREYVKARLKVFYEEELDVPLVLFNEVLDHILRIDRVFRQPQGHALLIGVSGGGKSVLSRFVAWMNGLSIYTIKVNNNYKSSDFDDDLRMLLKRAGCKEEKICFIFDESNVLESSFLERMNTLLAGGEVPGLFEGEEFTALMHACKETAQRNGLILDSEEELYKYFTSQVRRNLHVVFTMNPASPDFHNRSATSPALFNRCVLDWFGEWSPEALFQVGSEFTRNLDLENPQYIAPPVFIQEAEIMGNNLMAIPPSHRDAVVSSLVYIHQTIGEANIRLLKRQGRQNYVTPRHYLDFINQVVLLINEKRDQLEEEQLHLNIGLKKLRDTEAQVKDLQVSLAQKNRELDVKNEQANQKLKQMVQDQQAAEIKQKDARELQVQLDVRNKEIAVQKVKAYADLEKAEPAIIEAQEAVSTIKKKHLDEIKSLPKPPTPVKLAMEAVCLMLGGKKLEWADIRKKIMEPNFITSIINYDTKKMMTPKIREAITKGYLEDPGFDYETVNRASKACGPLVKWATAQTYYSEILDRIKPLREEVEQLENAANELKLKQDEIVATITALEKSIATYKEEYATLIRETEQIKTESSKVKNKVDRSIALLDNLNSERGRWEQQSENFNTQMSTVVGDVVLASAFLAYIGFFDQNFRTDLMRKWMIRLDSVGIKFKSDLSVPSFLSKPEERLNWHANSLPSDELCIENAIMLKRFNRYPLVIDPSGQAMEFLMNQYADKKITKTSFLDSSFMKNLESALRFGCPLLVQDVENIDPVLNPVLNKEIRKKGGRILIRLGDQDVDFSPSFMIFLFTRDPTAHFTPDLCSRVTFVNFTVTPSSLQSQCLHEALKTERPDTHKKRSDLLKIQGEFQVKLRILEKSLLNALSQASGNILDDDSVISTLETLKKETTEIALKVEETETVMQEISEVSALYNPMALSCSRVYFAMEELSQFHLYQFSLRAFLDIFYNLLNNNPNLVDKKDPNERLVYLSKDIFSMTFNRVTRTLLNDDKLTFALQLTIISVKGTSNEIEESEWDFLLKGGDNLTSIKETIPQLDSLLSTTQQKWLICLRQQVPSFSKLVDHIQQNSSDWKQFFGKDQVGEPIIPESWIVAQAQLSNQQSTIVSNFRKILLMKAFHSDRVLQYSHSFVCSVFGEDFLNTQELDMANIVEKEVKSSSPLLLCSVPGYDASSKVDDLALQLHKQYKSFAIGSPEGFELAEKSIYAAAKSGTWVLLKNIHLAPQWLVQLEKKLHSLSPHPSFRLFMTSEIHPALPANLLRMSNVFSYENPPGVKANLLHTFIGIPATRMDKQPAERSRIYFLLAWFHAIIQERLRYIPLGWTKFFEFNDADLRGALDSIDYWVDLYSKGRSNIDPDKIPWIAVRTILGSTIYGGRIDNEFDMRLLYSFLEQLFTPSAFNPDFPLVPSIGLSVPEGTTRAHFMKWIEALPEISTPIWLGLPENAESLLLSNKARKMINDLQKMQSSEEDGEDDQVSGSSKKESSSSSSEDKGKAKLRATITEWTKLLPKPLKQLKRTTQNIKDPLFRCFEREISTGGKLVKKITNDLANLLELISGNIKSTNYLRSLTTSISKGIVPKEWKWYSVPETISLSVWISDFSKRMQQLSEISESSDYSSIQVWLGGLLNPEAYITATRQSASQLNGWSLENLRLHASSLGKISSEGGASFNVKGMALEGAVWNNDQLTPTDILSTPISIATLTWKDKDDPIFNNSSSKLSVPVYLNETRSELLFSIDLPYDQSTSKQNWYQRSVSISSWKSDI

T1 sequence (P34036 1388-4730): as the sequence (P34036 1388-4730 E2027Q) above, with Q640E counted along it

SMILES	cryo-EM reconstruction of head, 23 Å [1]	cryo-EM reconstruction of head, 25 Å [2]
Nc1ncnc2c1ncn2[C@@H]1O[C@H](COP(=O)(O)OP(=O)(O)O)[C@@H](O)[C@H]1O [ADP]	Cryo-EM reconstruction of the head domain of cytoplasmic dynein in the presence of ADP	
Nc1ncnc2c1ncn2[C@@H]1O[C@H](COP(=O)(O)OP(=O)(O)OP(=O)(O)O)[C@@H](O)[C@H]1O [ATP]		cytoplasmic dynein head, bearing a E2027Q substitution, in the ATP state
